# Reference: US12384751B2, “Allosteric activators of the ALPHA1A-adrenergic receptor” (The Cleveland Clinic Foundation, priority 2019, dated 2025)
# Entries after “also recorded” stand apart in the source; their conditions may differ.
# Experiments:
# α1A-AR [1] = molecular target: T1, α1A-AR (Homo sapiens, UniProt P35348); assay: cAMP assay at α1A-AR; format: cell-based; design: expressed in transfected cells; host or cells: Rat-1 fibroblast cells
# T1 sequence (P35348 1-466): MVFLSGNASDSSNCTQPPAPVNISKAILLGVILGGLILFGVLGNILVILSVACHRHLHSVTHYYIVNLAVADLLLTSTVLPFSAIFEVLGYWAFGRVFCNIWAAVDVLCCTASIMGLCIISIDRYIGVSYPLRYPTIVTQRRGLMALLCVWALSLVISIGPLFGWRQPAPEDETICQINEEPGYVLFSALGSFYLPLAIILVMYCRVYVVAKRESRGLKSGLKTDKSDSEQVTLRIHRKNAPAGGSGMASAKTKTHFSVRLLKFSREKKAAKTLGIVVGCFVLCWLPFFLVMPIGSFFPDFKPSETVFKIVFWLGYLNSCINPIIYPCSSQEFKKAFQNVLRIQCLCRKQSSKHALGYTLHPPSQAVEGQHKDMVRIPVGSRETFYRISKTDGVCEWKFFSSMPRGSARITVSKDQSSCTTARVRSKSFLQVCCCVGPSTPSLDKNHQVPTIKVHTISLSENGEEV
# Description: (§1) cAMP assay: Cells expressing a single α1-adrenergic receptor subtype are washed and re-plated into 24-well plates in DMEM media without serum at approximately 2.4×10^4 cells/well. Cells are allowed to rest till the next day in a CO2 incubator at 37° C. The cells are washed twice with DMEM (no serum), then 1 ml of DMEM is added to each well. Cells are pre-incubated for 45 mins-1 hour at 37° C. in a CO2 incubator with 10 uM propranolol, followed by 100 uM IBMX for 30 minutes. Final DMSO concentration is at 0.05%. Norepinephrine or epinephrine is added in a dose response (1 dose per well) in addition to one of the Compounds 1-10 at one concentration (i.e. 10^−5M). Cells are incubated for another 30 mins at 37° C. in a CO2 incubator. The reaction is concluded by aspirating the media and adding 0.1M HCL. The mixture is incubated for 20 mins at room temperature. The cells are scraped and suspended until homogenous. The mixture is centrifuged at 1000 g for 10 mins and the supernatant assayed the same day according to a manufacturer's cAMP kit (Cayman Select Cyclic AMP EIA kit #501040).
# α1D-AR [2] = molecular target: T2, α1D-AR (Homo sapiens, UniProt P25100); assay: Effect of compound on binding affinity of norepinephrine at α1D-AR; settings: 10^−5M
# T2 construct: expressed in transfected cells; host or cells: Rat-1 fibroblast cells
# T2 sequence (P25100 1-572): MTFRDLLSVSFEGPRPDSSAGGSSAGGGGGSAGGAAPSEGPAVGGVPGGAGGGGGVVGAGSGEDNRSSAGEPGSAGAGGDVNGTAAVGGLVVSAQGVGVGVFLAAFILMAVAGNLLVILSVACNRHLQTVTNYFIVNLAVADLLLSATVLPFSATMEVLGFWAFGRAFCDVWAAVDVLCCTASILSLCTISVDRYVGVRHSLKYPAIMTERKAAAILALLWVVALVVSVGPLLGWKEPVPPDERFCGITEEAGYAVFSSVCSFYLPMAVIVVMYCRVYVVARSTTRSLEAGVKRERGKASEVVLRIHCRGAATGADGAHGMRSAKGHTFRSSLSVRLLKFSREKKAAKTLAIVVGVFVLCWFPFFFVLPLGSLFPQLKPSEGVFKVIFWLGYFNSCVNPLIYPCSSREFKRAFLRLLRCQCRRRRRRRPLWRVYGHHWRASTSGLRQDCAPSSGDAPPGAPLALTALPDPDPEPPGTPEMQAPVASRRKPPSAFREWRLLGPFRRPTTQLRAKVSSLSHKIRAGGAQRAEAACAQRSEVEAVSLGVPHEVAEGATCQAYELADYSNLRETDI
# Description: Competition binding assays: These compounds were characterized for their ligand binding properties at the α1-AR subtypes. The binding affinities of Compounds 1-10 were determined in a series of competition-binding experiments with the α1-AR-selective antagonist [^125I]HEAT as the radioligand. Assays were performed in duplicate in HEM buffer, in a total assay volume of 1000 μl. Radioligand binding assays are composed of 5 ug of membranes, harvested from Rat-1 fibroblast cells expressing only one of the alpha1-AR subtypes, HEM buffer containing GTP (composed of 20 mM HEPES, pH 7.4, 1.4 mM EGTA, 12.5 mM MgCl2, pH to 7.4), 0.5 mM GTP, 35-80 pM^125I-HEAT, and various doses of norepinephrine or epinephrine and incubated with shaking at 25° C. for 1-2 hours. The above conditions will convert all the conformations of the receptor into a single low affinity site. To show both high and low affinity sites of the receptor (typically seen with GPCR agonists), the GTP is removed from the binding buffer. Nonspecific binding was determined experimentally in the presence of 10^−4 M phentolamine. Unbound radioactivity was separated from membrane-bound radioactivity by filtration through Whatman GF/C filter paper. […] Bound radioactivity remaining on the filters was counted on an ICN gamma counter operating at 79.8% efficiency. Data are analyzed using Graphpad Prism. […]
# α1D-AR [3] = molecular target: T2, α1D-AR; assay: cAMP assay at α1D-AR; format: cell-based
# Description: as §1
# α1A-AR [4] = molecular target: T1, α1A-AR; assay: Effect of compound on binding affinity of norepinephrine, epinephrine or other ligands at α1A-AR; design: expressed in transfected cells; host or cells: Rat-1 fibroblast cells
smiles,measurement,setting,value
"CC(C)Cc1c(OCC2=NCCN2)cccc1N(C)S(C)(=O)=O [Compound 3, N-[3-(4,5-Dihydro-1H-imidazol-2-ylmethoxy)-2-isobutyl-phenyl]-N-methyl-methanesulfonamide]",PAM activity / PAM type,α1A-AR [1],Type I PAM
same,dose at which potentiation of norepinephrine cAMP response is maximal,α1A-AR [1],10^−8 M
same,effect on epinephrine-mediated cAMP response at the α1A-AR,α1A-AR [1]; 10^−5M to 10^−7M of compound,no effect
same,effect on norepinephrine-mediated cAMP response at the α1A-AR,α1A-AR [1]; 10^−5M to 10^−9M of compound,potentiates
same,stimulation of cAMP by the compound by itself,α1A-AR [1]; compound alone,cannot stimulate
same,potentiation of the cAMP response of norepinephrine,α1A-AR [1]; dose-response of compound,50%
same,effect on affinity of norepinephrine at the α1D-AR,α1D-AR [2],no effect; also recorded: does not increase the affinity of norepinephrine
same,effect on norepinephrine cAMP response at the α1D-AR,α1D-AR [3],no effect
same,effect on binding of phentolamine at the α1A-AR,α1A-AR [4]; 10^−5M,no effect; also recorded: does not change the affinity
same,effect on binding of cirazoline at the α1A-AR,α1A-AR [4]; 10^−5M and 10^−7M,does not affect; also recorded: no effect
